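Assay format: 96-well plates, 48-hour exposure. The concentration for full growth arrest is given as TGI.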
Columns and labels:
Assay in all cases: growth of human tumour cells (NCI), 48 h
SK-OV-3 ovarian = system: SK-OV-3 ovarian
NCI-H522 lung = system: NCI-H522 lung
HT29 colon = system: HT29 colon
SK-MEL-2 melanoma = system: SK-MEL-2 melanoma
DU-145 prostate = system: DU-145 prostate
SNB-75 CNS = system: SNB-75 CNS
T-47D breast = system: T-47D breast
SF-268 CNS = system: SF-268 CNS
HCC-2998 colon = system: HCC-2998 colon
COLO 205 colon = system: COLO 205 colon
IGROV1 ovarian = system: IGROV1 ovarian
TK-10 renal = system: TK-10 renal
OVCAR-8 ovarian = system: OVCAR-8 ovarian
SF-295 CNS = system: SF-295 CNS
SN12C renal = system: SN12C renal
HS 578T breast = system: HS 578T breast
UACC-257 melanoma = system: UACC-257 melanoma
MALME-3M melanoma = system: MALME-3M melanoma
LOX IMVI melanoma = system: LOX IMVI melanoma
MCF7 breast = system: MCF7 breast
CAKI-1 renal = system: CAKI-1 renal
OVCAR-5 ovarian = system: OVCAR-5 ovarian
PC-3 prostate = system: PC-3 prostate
A549 NSCLC = system: A549 NSCLC
UACC-62 melanoma = system: UACC-62 melanoma
HCT-15 colon = system: HCT-15 colon
NCI-H460 lung = system: NCI-H460 lung
HOP-92 NSCLC = system: HOP-92 NSCLC
M14 melanoma = system: M14 melanoma
KM12 colon = system: KM12 colon
HOP-62 NSCLC = system: HOP-62 NSCLC
OVCAR-4 ovarian = system: OVCAR-4 ovarian
UO-31 renal = system: UO-31 renal
NCI/ADR-RES ovarian = system: NCI/ADR-RES ovarian
ACHN renal = system: ACHN renal
OVCAR-3 ovarian = system: OVCAR-3 ovarian
SK-MEL-5 melanoma = system: SK-MEL-5 melanoma
NCI-H23 lung = system: NCI-H23 lung
MDA-N = system: MDA-N
786-0 renal = system: 786-0 renal
A498 renal = system: A498 renal
EKVX NSCLC = system: EKVX NSCLC
HCT-116 colon = system: HCT-116 colon
SNB-19 CNS = system: SNB-19 CNS
SW-620 colon = system: SW-620 colon
MDA-MB-231 breast = system: MDA-MB-231 breast
MDA-MB-435 = system: MDA-MB-435
NCI-H226 lung = system: NCI-H226 lung
U251 CNS = system: U251 CNS
BT-549 breast = system: BT-549 breast
K-562 leukemia = system: K-562 leukemia
SK-MEL-28 melanoma = system: SK-MEL-28 melanoma
RPMI-8226 leukemia = system: RPMI-8226 leukemia
CCRF-CEM leukemia = system: CCRF-CEM leukemia

SMILES: Brc1cccc(Nc2ncnc3sc4c(c23)CCC2(C4)OCCO2)c1
- TGI (SK-OV-3 ovarian): > 100 µM
- TGI (NCI-H522 lung): 33.8 µM
- TGI (HT29 colon): > 100 µM
- TGI (SK-MEL-2 melanoma): 79.7 µM
- TGI (DU-145 prostate): 50.1 µM
- TGI (SNB-75 CNS): 80.9 µM
- TGI (T-47D breast): 40.9 µM
- TGI (SF-268 CNS): > 100 µM
- TGI (HCC-2998 colon): 72.1 µM
- TGI (COLO 205 colon): 35.6 µM
- TGI (IGROV1 ovarian): 30.9 µM
- TGI (TK-10 renal): 68.9 µM
- TGI (OVCAR-8 ovarian): > 100 µM
- TGI (SF-295 CNS): > 100 µM
- TGI (SN12C renal): > 100 µM
- TGI (HS 578T breast): > 100 µM
- TGI (UACC-257 melanoma): 91.4 µM
- TGI (MALME-3M melanoma): > 100 µM
- TGI (LOX IMVI melanoma): 40.9 µM
- TGI (MCF7 breast): > 100 µM
- TGI (CAKI-1 renal): > 100 µM
- TGI (OVCAR-5 ovarian): > 100 µM
- TGI (PC-3 prostate): > 100 µM
- TGI (A549 NSCLC): > 100 µM
- TGI (UACC-62 melanoma): 70.5 µM
- TGI (HCT-15 colon): > 100 µM
- TGI (NCI-H460 lung): > 100 µM
- TGI (HOP-92 NSCLC): 48.6 µM
- TGI (M14 melanoma): 68.6 µM
- TGI (KM12 colon): 80.4 µM
- TGI (HOP-62 NSCLC): > 100 µM
- TGI (OVCAR-4 ovarian): 94.5 µM
- TGI (UO-31 renal): > 100 µM
- TGI (NCI/ADR-RES ovarian): 76.4 µM
- TGI (ACHN renal): > 100 µM
- TGI (OVCAR-3 ovarian): > 100 µM
- TGI (SK-MEL-5 melanoma): 32.3 µM
- TGI (NCI-H23 lung): > 100 µM
- TGI (MDA-N): > 100 µM
- TGI (786-0 renal): > 100 µM
- TGI (A498 renal): 42 µM
- TGI (EKVX NSCLC): > 100 µM
- TGI (HCT-116 colon): > 100 µM
- TGI (SNB-19 CNS): > 100 µM
- TGI (SW-620 colon): 28.9 µM
- TGI (MDA-MB-231 breast): > 100 µM
- TGI (MDA-MB-435): 87 µM
- TGI (NCI-H226 lung): 77.6 µM
- TGI (U251 CNS): > 100 µM
- TGI (BT-549 breast): 75.2 µM

SMILES: COC(=O)C(C)(C)NC(=O)C(Cc1ccccc1)Nc1ncnc2c1ncn2-c1ccc(OC)cc1 (stereo unspecified)
- TGI (SK-OV-3 ovarian): > 100 µM
- TGI (NCI-H522 lung): 34.2 µM
- TGI (HT29 colon): 46.6 µM
- TGI (SK-MEL-2 melanoma): > 100 µM
- TGI (DU-145 prostate): > 100 µM
- TGI (SNB-75 CNS): 69.1 µM
- TGI (T-47D breast): 58.2 µM
- TGI (SF-268 CNS): > 100 µM
- TGI (HCC-2998 colon): > 100 µM
- TGI (COLO 205 colon): > 100 µM
- TGI (IGROV1 ovarian): > 100 µM
- TGI (TK-10 renal): > 100 µM
- TGI (OVCAR-8 ovarian): > 100 µM
- TGI (SF-295 CNS): > 100 µM
- TGI (SN12C renal): > 100 µM
- TGI (HS 578T breast): 79.8 µM
- TGI (UACC-257 melanoma): > 100 µM
- TGI (LOX IMVI melanoma): > 100 µM
- TGI (MCF7 breast): 72.4 µM
- TGI (CAKI-1 renal): > 100 µM
- TGI (OVCAR-5 ovarian): > 100 µM
- TGI (PC-3 prostate): > 100 µM
- TGI (A549 NSCLC): > 100 µM
- TGI (UACC-62 melanoma): > 100 µM
- TGI (HCT-15 colon): > 100 µM
- TGI (NCI-H460 lung): 73.5 µM
- TGI (K-562 leukemia): > 100 µM
- TGI (HOP-92 NSCLC): 58.2 µM
- TGI (M14 melanoma): > 100 µM
- TGI (KM12 colon): 96.7 µM
- TGI (HOP-62 NSCLC): > 100 µM
- TGI (OVCAR-4 ovarian): > 100 µM
- TGI (SK-MEL-28 melanoma): > 100 µM
- TGI (UO-31 renal): > 100 µM
- TGI (RPMI-8226 leukemia): > 100 µM
- TGI (NCI/ADR-RES ovarian): > 100 µM
- TGI (ACHN renal): > 100 µM
- TGI (OVCAR-3 ovarian): > 100 µM
- TGI (SK-MEL-5 melanoma): > 100 µM
- TGI (NCI-H23 lung): > 100 µM
- TGI (MDA-N): 43.9 µM
- TGI (786-0 renal): > 100 µM
- TGI (A498 renal): 72.7 µM
- TGI (EKVX NSCLC): 45.6 µM
- TGI (HCT-116 colon): > 100 µM
- TGI (SNB-19 CNS): > 100 µM
- TGI (SW-620 colon): 54.1 µM
- TGI (MDA-MB-231 breast): > 100 µM
- TGI (CCRF-CEM leukemia): 35.8 µM
- TGI (MDA-MB-435): 32 µM
- TGI (NCI-H226 lung): > 100 µM
- TGI (U251 CNS): > 100 µM
- TGI (BT-549 breast): 98.6 µM

SMILES: COc1ccc(N2C(=O)C3c4[nH]c5c(C)cccc5c4C4CCC(c5ccccc5)CC4C3C2=O)cc1 (stereo unspecified)
- TGI (SK-OV-3 ovarian): 34 µM
- TGI (NCI-H522 lung): 16.7 µM
- TGI (HT29 colon): 21.3 µM
- TGI (SK-MEL-2 melanoma): 60.8 µM
- TGI (DU-145 prostate): 31.1 µM
- TGI (SNB-75 CNS): 24.4 µM
- TGI (T-47D breast): 28.6 µM
- TGI (SF-268 CNS): 20.3 µM
- TGI (COLO 205 colon): 83.9 µM
- TGI (IGROV1 ovarian): 33.5 µM
- TGI (TK-10 renal): > 100 µM
- TGI (OVCAR-8 ovarian): 36.8 µM
- TGI (SF-295 CNS): 40.2 µM
- TGI (SN12C renal): 59.5 µM
- TGI (HS 578T breast): 28.6 µM
- TGI (UACC-257 melanoma): 51.2 µM
- TGI (LOX IMVI melanoma): > 100 µM
- TGI (MCF7 breast): 21.7 µM
- TGI (CAKI-1 renal): 39.3 µM
- TGI (OVCAR-5 ovarian): 28.8 µM
- TGI (PC-3 prostate): 28.2 µM
- TGI (A549 NSCLC): 24.2 µM
- TGI (HCT-15 colon): > 100 µM
- TGI (NCI-H460 lung): 18.2 µM
- TGI (HOP-92 NSCLC): 41 µM
- TGI (M14 melanoma): 26 µM
- TGI (KM12 colon): 42.2 µM
- TGI (HOP-62 NSCLC): 27.3 µM
- TGI (OVCAR-4 ovarian): 26.6 µM
- TGI (SK-MEL-28 melanoma): 27.9 µM
- TGI (UO-31 renal): 43.3 µM
- TGI (RPMI-8226 leukemia): 30.4 µM
- TGI (NCI/ADR-RES ovarian): 66.4 µM
- TGI (ACHN renal): 43.5 µM
- TGI (OVCAR-3 ovarian): 60.4 µM
- TGI (NCI-H23 lung): 67.7 µM
- TGI (MDA-N): 34.3 µM
- TGI (786-0 renal): > 100 µM
- TGI (A498 renal): 39.1 µM
- TGI (EKVX NSCLC): 63.4 µM
- TGI (HCT-116 colon): > 100 µM
- TGI (SNB-19 CNS): 76.3 µM
- TGI (SW-620 colon): 40.5 µM
- TGI (MDA-MB-231 breast): 78.2 µM
- TGI (CCRF-CEM leukemia): 4.41 µM
- TGI (MDA-MB-435): 34.3 µM
- TGI (NCI-H226 lung): 46.3 µM
- TGI (BT-549 breast): 47.8 µM

Source: PubChem BioAssay (NCI)
